These results are taken from patent US20150216171A1, “HERBICIDALLY ACTIVE BICYCLOARYL CARBOXYLIC ACID AMIDES” (BAYER CROPSCIENCE AG, priority 2012, published 2015).

Assay type in all cases: in vivo
The test system of data set [1] is corn. Description: Post-emergence test, damage to crop plants. To be noted: application rate 80 g/ha, scored visually after about 3 weeks. As to the method:
(§1) Seeds of monocotyledonous and dicotyledonous weed and crop plants are laid out in sandy loam in wood-fiber pots, covered with soil and cultivated in a greenhouse under good growth conditions. 2 to 3 weeks after sowing, the test plants are treated at the one-leaf stage. The inventive compounds, formulated in the form of wettable powders (WP) or as emulsion concentrates (EC), are then sprayed as aqueous suspension or emulsion at a water application rate equating to 600 to 800 I/ha with the addition of 0.2% of wetting agent onto the green parts of the plants. After the trial plants have been left to stand in a greenhouse under optimal growth conditions for about 3 weeks, the efficacy of the formulations is scored visually in comparison to untreated controls (herbicidal action in percent (%): 100% efficacy=the plants have died, 0% efficacy=like control plants). In this test, for example, compounds no. […] Compounds no. […] Compounds no.

Data set [2] deals with wheat. The experiment in a line: Post-emergence test, damage to crop plants. To be noted: application rate 80 g/ha, scored visually after about 3 weeks. Here is the method:
as §1

The subject of data set [3] is corn. Description: Pre-emergence test, damage to crop plants. The conditions noted are these: application rate 320 g/ha, scored visually after 3 weeks. The text has this:
(§2) Seeds of monocotyledonous and dicotyledonous weed plants and crop plants are laid out in wood-fiber pots in sandy loam and covered with soil. The inventive compounds, formulated in the form of wettable powders (WP) or as emulsion concentrates (EC), are then applied to the surface of the soil cover in the form of an aqueous suspension or emulsion at a water application rate equating to 600 to 800 l/ha, with addition of 0.2% wetting agent. After the treatment, the pots are placed in a greenhouse and kept under good growth conditions for the test plants. The damage to the trial plants is scored visually after a test period of 3 weeks by comparison with untreated controls (herbicidal activity in percent (%): 100% efficacy=the plants have died, 0% efficacy=like control plants). In this test, for example, compounds no. […] Compounds no. […] Compounds no.

Data set [4] has as its system wheat. Description: Pre-emergence test, damage to crop plants. The conditions noted are these: application rate 320 g/ha, scored visually after 3 weeks.
Description: as §2

Data set [5] concerns rice. The experiment in a line: Post-emergence test, damage to crop plants. The conditions noted are these: application rate 80 g/ha, scored visually after about 3 weeks. Here is the method:
as §1

As to `CC1=Cc2c(ccc(C(=O)Nc3nnnn3Cc3ccc(Cl)cc3)c2Cl)S1(=O)=O` [59-51], the damage in corn result in data set [1] is listed as “did not cause any damage at all”. The damage in wheat entry in data set [2] is recorded as “did not cause any damage at all”.
On to `Cc1c(C(=O)Nc2nnnn2C)ccc2c1S(=O)(=O)CC=C2` [67-1], for which, in data set [1], the damage in corn entry is “did not cause any damage at all”. The damage in wheat entry in data set [2] is recorded as “did not cause any damage at all”.
`CC1=Cc2c(ccc(C(=O)Nc3nonc3C)c2Cl)S1(=O)=O` [17-19]: the damage in corn entry in data set [3] is on record as “did not cause any damage at all”. Moreover, the damage in wheat entry in data set [4] and in data set [2] was “did not cause any damage at all” each time. Moreover, the damage in rice result in data set [5] is given as “did not cause any damage at all”.
Turning to `Cc1c(C(=O)Nc2nnnn2C)ccc2c1S(=O)(=O)C=C2` [7-1], in data set [4], the damage in wheat result is on record as “did not cause any damage at all”.
Regarding `CC1=Cc2c(ccc(C(=O)Nc3nonc3-n3cncn3)c2Cl)S1(=O)=O` [60-115], the damage in corn result in data set [3] was “did not cause any damage at all”. Further, in data set [4], the damage in wheat entry is “did not cause any damage at all”.
Turning to `Cc1c(C(=O)Nc2nnnn2C)ccc2c1SCC=C2` [61-1], the damage in wheat entry in data set [4] and in data set [2] was “did not cause any damage at all” in each case. The damage in rice entry in data set [5] is given as “did not cause any damage at all”.
